These results are taken from ChEMBL document CHEMBL5331057, “A decade of approved first-in-class small molecule orphan drugs: Achievements, challenges and perspectives” (Eur J Med Chem, 2022).

Each structure is given as a SMILES string. ≈ marks a conversion by molar mass, not a printed value.

One data set has as its target Melanocortin receptor 4 (Rattus norvegicus, UniProt P70596). Briefly: Inhibition of rat MC4R.
In the next data set the test system is RBL-2H3. Briefly: Antiproliferative activity against rat RBL-2H3 cells assessed as […]. The format is functional, cell-based.
The subject of another data set is Human betaherpesvirus 5. Briefly: Antiviral activity against HCMV infected in human NHDF cells assessed as reduction in virus plaque formation. The conditions noted are these: Human betaherpesvirus 5, NHDF. The class given is functional, organism-based.
Data set [1] can be described thus: Cytotoxicity against human HBE cells assessed as inhibition of cell growth. The class given is toxicity, cell-based.
Data set [2] has as its target Cystic fibrosis transmembrane conductance regulator (Homo sapiens, UniProt P13569, F508DEL).
For data set [3], the target named is Isocitrate dehydrogenase [NADP], mitochondrial (Homo sapiens, UniProt P48735). Briefly: Inhibition of IDH2 (unknown origin).
Sequence of Isocitrate dehydrogenase [NADP], mitochondrial (P48735 whole entry): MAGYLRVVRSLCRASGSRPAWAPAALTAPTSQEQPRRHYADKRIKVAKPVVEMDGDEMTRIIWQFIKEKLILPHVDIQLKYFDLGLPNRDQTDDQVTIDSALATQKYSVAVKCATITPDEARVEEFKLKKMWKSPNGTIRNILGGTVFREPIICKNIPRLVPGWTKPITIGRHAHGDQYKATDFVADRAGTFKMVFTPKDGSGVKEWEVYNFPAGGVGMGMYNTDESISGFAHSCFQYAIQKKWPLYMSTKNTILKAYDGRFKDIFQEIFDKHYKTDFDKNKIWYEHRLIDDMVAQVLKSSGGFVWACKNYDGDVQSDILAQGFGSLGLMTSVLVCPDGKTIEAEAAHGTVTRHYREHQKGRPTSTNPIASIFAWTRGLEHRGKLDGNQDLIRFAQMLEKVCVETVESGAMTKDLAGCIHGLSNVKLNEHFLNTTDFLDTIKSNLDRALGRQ
In a further data set the test system is HCT-116. Briefly: Antiproliferative activity against human HCT-116 cells assessed as inhibition of cell growth. The class given is functional, cell-based.
Data set [4] concerns the target T1, Exportin-1 (Homo sapiens, UniProt O14980). Briefly: Inhibition of XPO1 in human MOLT-16 cells. The class given is cell-based.
Data set [5] deals with T1, Exportin-1. Briefly: Inhibition of XPO1 in human HPBALL cells. The class given is cell-based.
For data set [6], the target named is T2, GTPase KRas (Homo sapiens, UniProt P01116). Briefly: Inhibition of K-Ras in human NCI-H460 cells. The format is cell-based.
T2 sequence (P01116 whole entry): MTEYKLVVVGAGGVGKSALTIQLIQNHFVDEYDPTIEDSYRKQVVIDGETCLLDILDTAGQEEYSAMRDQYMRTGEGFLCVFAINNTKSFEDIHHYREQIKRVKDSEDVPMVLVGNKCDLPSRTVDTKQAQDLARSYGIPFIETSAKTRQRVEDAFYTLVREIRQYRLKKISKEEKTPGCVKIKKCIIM
The test system of the next data set is RS4-11. Briefly: Antiproliferative activity against human RS4-11 cells assessed as […]. The class given is functional, cell-based.
Data set [7] concerns the target Soluble guanylate cyclase (Homo sapiens) (UniProt Q02153+O75343+P33402+Q02108). Briefly: Stimulation of recombinant sGC (unknown origin) expressed in CHO cells assessed as formation of cGMP. The format is cell-based. The conditions noted are these: filed as activator.
In a further data set the test system is Aorta. Briefly: Relaxation of pre-contracted rabbit aorta. The class given is functional, tissue-based. The conditions noted are these: Oryctolagus cuniculus.
The test system of data set [8] is Mycobacterium tuberculosis. Briefly: microbe, parasite or virus in culture.
In data set [9] the test system is Mycobacterium tuberculosis. Briefly: microbe, parasite or virus in culture. This is another data set of the same source.
The next data set addresses Methionine synthase (Homo sapiens, UniProt Q99707). Briefly: Inhibition of MTR (unknown origin).
A further data set has as its system HepG2. Briefly: cells. The settings on record: Homo sapiens, HepG2, read-out: ED50.
In data set [10] the target is Hepatocyte growth factor receptor (Homo sapiens, UniProt P08581). Briefly: Inhibition of c-Met (unknown origin).
A further data set can be described thus: cells. The settings on record: Homo sapiens, HAC15, 72 h.
The test system of a further data set is Brain. Briefly: Neuroprotective activity in Wistar rat brain homogenate assessed as inhibition of lipid peroxidation incubated for 10 mins by fluorometric analysis. The format is functional, tissue-based.
The next data set relates to Malme-3M. Briefly: Antiproliferative activity against human Malme-3M cells assessed as inhibition of cell growth. The format is functional, cell-based.
Another data set has as its system SW-620. Briefly: cells. The settings on record: Homo sapiens.
Another data set deals with K562. Briefly: Antiproliferative activity against human K562 cells assessed as inhibition of cell growth. The format is functional, cell-based.
The nature of data set [11]: Inhibition of wild type FTase (unknown origin). Details: species or system Homo sapiens.
The target in a further data set is GTPase HRas (Homo sapiens, UniProt P01112). Briefly: Inhibition of H-Ras (unknown origin).
Sequence of GTPase HRas (P01112 whole entry): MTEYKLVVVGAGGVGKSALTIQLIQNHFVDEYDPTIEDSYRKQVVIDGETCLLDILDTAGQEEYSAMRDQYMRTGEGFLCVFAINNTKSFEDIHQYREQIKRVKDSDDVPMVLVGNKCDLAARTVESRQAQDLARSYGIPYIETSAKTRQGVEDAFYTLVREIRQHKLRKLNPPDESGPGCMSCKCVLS
Data set [12] concerns the target T2, GTPase KRas. Briefly: Inhibition of K-Ras (unknown origin).

Sequence of Cystic fibrosis transmembrane conductance regulator (P13569 as listed by the source): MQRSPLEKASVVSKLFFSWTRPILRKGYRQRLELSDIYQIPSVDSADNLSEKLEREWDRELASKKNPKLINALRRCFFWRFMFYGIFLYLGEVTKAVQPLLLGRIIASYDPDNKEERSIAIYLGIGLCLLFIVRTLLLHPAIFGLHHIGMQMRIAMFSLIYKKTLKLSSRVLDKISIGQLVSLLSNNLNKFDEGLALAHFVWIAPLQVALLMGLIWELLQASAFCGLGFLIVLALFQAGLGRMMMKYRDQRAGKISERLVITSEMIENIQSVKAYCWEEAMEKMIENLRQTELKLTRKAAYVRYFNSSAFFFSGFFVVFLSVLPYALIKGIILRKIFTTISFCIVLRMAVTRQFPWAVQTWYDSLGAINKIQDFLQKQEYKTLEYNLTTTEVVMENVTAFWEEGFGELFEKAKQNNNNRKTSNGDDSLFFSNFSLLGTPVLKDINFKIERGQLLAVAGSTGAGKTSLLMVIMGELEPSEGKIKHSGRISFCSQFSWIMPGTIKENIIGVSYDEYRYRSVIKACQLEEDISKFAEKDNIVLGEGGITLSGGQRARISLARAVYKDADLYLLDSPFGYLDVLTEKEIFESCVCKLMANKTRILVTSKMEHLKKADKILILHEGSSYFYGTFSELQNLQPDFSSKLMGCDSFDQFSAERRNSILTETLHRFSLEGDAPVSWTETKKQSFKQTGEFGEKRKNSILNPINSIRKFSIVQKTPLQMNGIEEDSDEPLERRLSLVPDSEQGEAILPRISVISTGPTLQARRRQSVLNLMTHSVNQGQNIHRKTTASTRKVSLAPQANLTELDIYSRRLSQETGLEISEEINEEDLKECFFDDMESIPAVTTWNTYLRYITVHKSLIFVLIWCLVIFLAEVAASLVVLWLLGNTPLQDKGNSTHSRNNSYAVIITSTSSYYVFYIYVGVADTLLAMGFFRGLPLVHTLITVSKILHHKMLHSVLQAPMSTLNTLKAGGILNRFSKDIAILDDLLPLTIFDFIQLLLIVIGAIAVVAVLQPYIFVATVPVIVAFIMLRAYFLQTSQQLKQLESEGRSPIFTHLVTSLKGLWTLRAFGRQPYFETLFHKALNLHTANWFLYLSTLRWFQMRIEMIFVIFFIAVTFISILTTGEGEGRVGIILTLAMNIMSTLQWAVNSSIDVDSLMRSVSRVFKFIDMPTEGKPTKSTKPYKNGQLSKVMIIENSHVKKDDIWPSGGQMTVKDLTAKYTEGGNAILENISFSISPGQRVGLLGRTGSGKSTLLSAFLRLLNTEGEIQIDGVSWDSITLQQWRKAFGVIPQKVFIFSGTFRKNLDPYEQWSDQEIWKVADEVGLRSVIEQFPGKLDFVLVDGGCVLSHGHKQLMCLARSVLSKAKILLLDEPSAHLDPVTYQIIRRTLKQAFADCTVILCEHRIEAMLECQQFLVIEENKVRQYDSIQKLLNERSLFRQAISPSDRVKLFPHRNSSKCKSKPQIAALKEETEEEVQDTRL
Sequence of Methionine synthase (Q99707 whole entry): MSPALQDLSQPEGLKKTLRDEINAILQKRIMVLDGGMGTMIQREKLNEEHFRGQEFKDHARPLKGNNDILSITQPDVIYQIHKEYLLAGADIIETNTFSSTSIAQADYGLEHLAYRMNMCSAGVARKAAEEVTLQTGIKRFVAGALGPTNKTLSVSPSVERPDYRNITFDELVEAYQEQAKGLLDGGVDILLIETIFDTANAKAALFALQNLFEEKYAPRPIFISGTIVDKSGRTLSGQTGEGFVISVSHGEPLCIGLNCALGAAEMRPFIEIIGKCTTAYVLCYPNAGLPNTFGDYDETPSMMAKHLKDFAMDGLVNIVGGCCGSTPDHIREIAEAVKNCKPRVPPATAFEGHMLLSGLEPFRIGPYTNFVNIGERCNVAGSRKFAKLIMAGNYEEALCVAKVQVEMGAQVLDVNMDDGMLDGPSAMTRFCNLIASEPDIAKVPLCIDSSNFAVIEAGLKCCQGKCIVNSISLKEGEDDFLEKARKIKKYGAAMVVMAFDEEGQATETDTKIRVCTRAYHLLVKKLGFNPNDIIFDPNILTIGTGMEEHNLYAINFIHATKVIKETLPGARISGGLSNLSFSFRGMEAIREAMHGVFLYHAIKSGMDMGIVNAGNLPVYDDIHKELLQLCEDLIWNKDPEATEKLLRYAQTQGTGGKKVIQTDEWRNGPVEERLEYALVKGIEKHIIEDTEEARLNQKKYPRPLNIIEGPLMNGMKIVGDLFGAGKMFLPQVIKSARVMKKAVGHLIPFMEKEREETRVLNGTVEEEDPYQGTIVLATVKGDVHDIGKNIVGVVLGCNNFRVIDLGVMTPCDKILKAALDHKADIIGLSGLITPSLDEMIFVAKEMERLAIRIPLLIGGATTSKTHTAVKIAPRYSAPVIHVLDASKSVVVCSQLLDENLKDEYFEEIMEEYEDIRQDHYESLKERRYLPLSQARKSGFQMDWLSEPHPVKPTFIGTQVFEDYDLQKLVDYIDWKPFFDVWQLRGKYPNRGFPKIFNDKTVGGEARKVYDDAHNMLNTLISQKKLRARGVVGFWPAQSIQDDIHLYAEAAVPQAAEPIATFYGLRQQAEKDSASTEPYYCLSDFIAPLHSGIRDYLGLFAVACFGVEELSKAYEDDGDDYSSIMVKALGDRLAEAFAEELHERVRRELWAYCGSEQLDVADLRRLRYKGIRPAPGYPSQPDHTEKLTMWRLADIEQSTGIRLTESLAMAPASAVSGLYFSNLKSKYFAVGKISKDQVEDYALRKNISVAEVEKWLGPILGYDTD
T1 sequence (O14980 whole entry): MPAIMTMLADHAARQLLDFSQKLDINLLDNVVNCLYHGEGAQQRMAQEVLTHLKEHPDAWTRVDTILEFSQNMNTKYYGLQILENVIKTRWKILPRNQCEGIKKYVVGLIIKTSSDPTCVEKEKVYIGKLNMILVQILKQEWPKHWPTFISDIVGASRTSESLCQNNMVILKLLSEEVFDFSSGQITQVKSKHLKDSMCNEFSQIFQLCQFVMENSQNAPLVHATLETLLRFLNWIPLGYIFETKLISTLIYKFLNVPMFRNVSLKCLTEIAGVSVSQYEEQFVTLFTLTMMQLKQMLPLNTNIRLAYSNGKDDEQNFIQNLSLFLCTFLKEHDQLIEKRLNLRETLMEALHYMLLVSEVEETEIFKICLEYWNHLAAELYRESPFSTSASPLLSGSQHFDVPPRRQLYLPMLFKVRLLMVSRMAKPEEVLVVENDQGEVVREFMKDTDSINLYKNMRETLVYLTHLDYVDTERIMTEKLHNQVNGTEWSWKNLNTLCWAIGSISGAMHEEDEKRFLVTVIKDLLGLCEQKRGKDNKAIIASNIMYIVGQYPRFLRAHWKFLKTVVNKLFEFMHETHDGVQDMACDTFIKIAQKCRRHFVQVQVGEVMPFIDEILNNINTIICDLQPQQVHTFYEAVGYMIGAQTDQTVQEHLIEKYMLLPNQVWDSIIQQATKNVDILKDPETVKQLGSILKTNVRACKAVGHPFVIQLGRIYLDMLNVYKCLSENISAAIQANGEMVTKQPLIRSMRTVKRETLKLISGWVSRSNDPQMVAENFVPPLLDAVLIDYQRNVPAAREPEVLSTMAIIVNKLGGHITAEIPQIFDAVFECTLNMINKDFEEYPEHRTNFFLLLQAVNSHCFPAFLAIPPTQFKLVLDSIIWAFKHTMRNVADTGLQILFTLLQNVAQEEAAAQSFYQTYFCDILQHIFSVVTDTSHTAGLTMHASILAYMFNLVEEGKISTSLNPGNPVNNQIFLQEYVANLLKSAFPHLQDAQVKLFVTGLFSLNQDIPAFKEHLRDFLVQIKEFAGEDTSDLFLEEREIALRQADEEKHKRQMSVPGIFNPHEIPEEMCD
Sequence of Melanocortin receptor 4 (P70596 whole entry): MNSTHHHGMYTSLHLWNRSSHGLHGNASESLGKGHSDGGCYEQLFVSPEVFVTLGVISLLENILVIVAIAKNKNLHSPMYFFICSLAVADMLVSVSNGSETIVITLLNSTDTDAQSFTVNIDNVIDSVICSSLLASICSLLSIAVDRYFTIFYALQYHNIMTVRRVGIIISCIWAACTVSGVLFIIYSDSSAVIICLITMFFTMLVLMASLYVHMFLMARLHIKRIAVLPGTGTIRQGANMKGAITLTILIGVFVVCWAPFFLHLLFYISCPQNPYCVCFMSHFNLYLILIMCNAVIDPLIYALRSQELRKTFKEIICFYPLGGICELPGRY

In the case of `CC(=O)N[C@@H](CCCNC(=N)N)C(=O)N[C@H]1CSSC[C@@H](C(N)=O)NC(=O)[C@H](Cc2c[nH]c3ccccc23)NC(=O)[C@H](CCCNC(=N)N)NC(=O)[C@@H](Cc2ccccc2)NC(=O)[C@H](Cc2c[nH]cn2)NC(=O)[C@@H](C)NC1=O` [SETMELANOTIDE], the EC50 at Melanocortin receptor 4 turned out to be 0.28 nM.
For `CCOC(=O)[C@@H](N)Cc1ccc(-c2cc(O[C@H](c3ccc(Cl)cc3-n3ccc(C)n3)C(F)(F)F)nc(N)n2)cc1` [TELOTRISTAT ETIPRATE], the IC50 (in general, the concentration at which inhibition is half-maximal) with RBL-2H3 came out at 400 nM.
For the molecule `COc1cccc(N2CCN(C3=Nc4c(F)cccc4[C@H](CC(=O)O)N3c3cc(C(F)(F)F)ccc3OC)CC2)c1` [LETERMOVIR], in the data set with Human betaherpesvirus 5, the EC50 was 4.5 nM and the EC90 – broadly, the point of the concentration-response curve where the effect stands at 90% – worked out at 6.1 nM.
In the case of `CC(C)(C)c1cc(C(C)(C)C)c(NC(=O)c2c[nH]c3ccccc3c2=O)cc1O` [IVACAFTOR], the EC50 in [1] turned out to be 236 nM; in data set [2], 25 nM.
Turning to `CC(C)(C)Nc1nc(Nc2ccccc2)nc(-c2ccccc2)n1`, the IC50 in data set [3] came out at 100 nM; with HCT-116, 530 nM.
In the case of `COc1cc(-c2ncn(/C=C\C(=O)OC(C)C)n2)cc(C(F)(F)F)c1`, the IC50 at Exportin-1 [4] was 112 nM; against Exportin-1 [5] it was 16 nM.
On GTPase KRas [6], `NC(=O)N1CCC(CC(=O)N2CCC([C@H]3c4ncc(Br)cc4CCc4cc(Cl)cc(Br)c43)CC2)CC1` [LONAFARNIB] registered an IC50 of 40 nM.
Regarding `CC1(C)CCC(c2ccc(Cl)cc2)=C(CN2CCN(c3ccc(C(=O)NS(=O)(=O)c4ccc(NCC5CCOCC5)c([N+](=O)[O-])c4)c(Oc4cnc5[nH]ccc5c4)c3)CC2)C1`, in the data set with RS4-11, the EC50 stood at 8 nM.
For `COC(=O)N(C)c1c(N)nc(-c2nn(Cc3ccccc3F)c3ncccc23)nc1N` [RIOCIGUAT], the MEC in [7] was found to be 0.03 µM. In addition, in the data set with Aorta, the midpoint of inhibition, the IC50, lay at 120 nM.
With `CO[C@H]1/C=C/O[C@@]2(C)Oc3c(C)c(O)c4c(O)c(c(/C=N/N5CCN(C)CC5)c(O)c4c3C2=O)NC(=O)/C(C)=C\C=C\[C@H](C)[C@H](O)[C@@H](C)[C@@H](O)[C@@H](C)[C@H](OC(C)=O)[C@@H]1C` [RIFAMPIN], the MIC in data set [8] and in [9] was 0.5 µg/mL (≈ 0.608 µM) throughout.
On Methionine synthase, `O=C(NC1CCN(CCCCC2(C(=O)NCC(F)(F)F)c3ccccc3-c3ccccc32)CC1)c1ccccc1-c1ccc(C(F)(F)F)cc1` [LOMITAPIDE] gave an IC50 of 0.5 nM. In the data set on HepG2, the EC50 is 0.8 nM.
As for `Cc1[nH]c(/C=C2\C(=O)Nc3ccc(S(=O)(=O)C(C)c4c(Cl)cccc4Cl)cc32)c(C)c1C(=O)N1CCC[C@@H]1CN1CCCC1` (some centres undefined), half-maximal inhibition in data set [10] (IC50) was put at 9 nM.
In the case of `COc1nc2ccc(Br)cc2cc1[C@@H](c1ccccc1)[C@@](O)(CCN(C)C)c1cccc2ccccc12` [BEDAQUILINE], the MIC in data set [8] and in [9] was 0.03 µg/mL (≈ 0.054 µM) each time.
Molecule `N#Cc1ccc([C@H]2CCc3cncn32)c(F)c1` [OSILODROSTAT] registered an IC50 in the data set “cells” of 35 nM.
Consider `NNC(=O)c1ccncc1` [ISONIAZID], for which the MIC in [8] and in data set [9] was 0.12 µg/mL (≈ 0.875 µM) each time.
Regarding `CC1=NN(c2ccccc2)C(=O)C1` [EDARAVONE], the IC50 in the data set on Brain stood at 18200 nM.
In the case of `Cn1cnc2c(F)c(Nc3ccc(Br)cc3Cl)c(C(=O)NOCCO)cc21` [SELUMETINIB], the IC50 in the data set with Malme-3M worked out at 59 nM.
Regarding `O=C(c1cc(Cc2n[nH]c(=O)c3ccccc23)ccc1F)N1CCN(C(=O)C2CC2)CC1` [OLAPARIB], the IC50 with SW-620 came out at 6 nM.
On to `COC(=O)C[C@](O)(CCCC(C)(C)O)C(=O)O[C@@H]1C(OC)=C[C@]23CCCN2CCc2cc4c(cc2[C@H]13)OCO4` [OMACETAXINE MEPESUCCINATE], for which the IC50 in the data set on K562 worked out at 21 nM.
As to `O=C1c2ccccc2CN1C1CCN(CCC(c2ccccc2)c2ccccc2)CC1`, at Methionine synthase, the IC50 worked out at 2.2 nM. The EC50 in the data set with HepG2 worked out at 2.2 nM.
Consider `O=C(Cc1ccncc1)N1CCN([C@H]2c3ccc(Cl)cc3CCc3cccnc32)CC1`, for which the figures for the IC50 (in [11]; against GTPase HRas; against GTPase KRas [12]) were 490 nM, 1.9 nM and 5.2 nM, respectively.
As to `O=C(c1c[nH]c2ccccc2c1=O)N(Cc1ccccc1)Cc1ccccc1`, the EC50 in data set [2] worked out at 2.1 nM.
